Assay results reported in patent publication US20220267373A1, “SELF-ASSEMBLING PEPTIDES AND HYDROGELS” (UNIVERSITY OF VIRGINIA PATENT FOUNDATION, priority 2018, published 2022).
Where two headings read alike, the source gives them in different places. Where no end group is shown, it is not given here.

What was measured:
[1] = test system: MADM OPC line; assay: Hydrogel cell encapsulation and 3D culture (ATP, DNA, live/dead, immunostaining); assay type: cell-based
Protocol: OPCs were cultured in DMEM with high glucose, 4 mM L-glutamine, 1 mM sodium pyruvate (Life Technologies) with N2 and B27 supplement (Life Technologies), 1% penicillin-streptomycin (Life Technologies), 10 ng/mL mouse PDGFA-AA (eBioscience), and 50 ng/mL human NT3 (Peprotech). Cell media was changed every 2 days, and cells were grown to 90% confluency and passaged using 0.25% trypsin in Dulbecco's phosphate buffered saline (PBS). Cells were cultured in 5% CO2 atmosphere, and 21% O2 at 37° C.
Hydrogels for cell encapsulation were made using 1.5 wt % AYFIL peptide in PBS. 25 μL hydrogels with 5×10^6 cells/mL were made by mixing cells and peptides and then transferred to a cell incubator for 10 minutes at 37° C. at 100% humidity. OPC proliferation media was then added to the hydrogels, and changed every 2 days. Hydrogels were stored at −80° C. in lysis buffer before running ATP or DNA quantification assays. For quantification, gels were homogenized in lysis buffer using a hand grinder and were measured using the CellTiter-Glo luminescent Cell Viability Assay (Promega, United States) and the QuantiT PicoGreen dsDNA assay (ThermoFisher) according to manufacturer protocols.
After 2 days of culture, gels were fixed in 4% paraformaldehyde for 20 minutes at 4° C. and rinsed with PBS before permeabilizing overnight with 0.3% triton-X in PBS. Hydrogels were rinsed in PBS, and then incubated with 10 μg/mL stock solution of Alexa Fluor 568 Phalloidin (ThermoFisher) in 1% BSA in PBS overnight. 4′,6-diamidino-2-phenylindole (DAPI) was added to stain cell nuclei during the last 20 minutes of incubation. Gels were then washed 4×20 min in PBS and imaged with a Zeiss LSM 780 confocal microscope. 100 μm z-stack images were collected with a z-spacing distance of 1 μm.

[2] = Rheology: storage modulus (G') from strain sweeps of peptide hydrogels; assay type: physicochemical; settings: pH 7.4
Protocol: (§1) Lyophilized peptides were dissolved in PBS to a final concentration of 1.5 or 3 wt. %. The pH of the peptide solutions was adjusted by drop-wise addition of minute amounts of HCl or NaOH. Rheological tests were performed on 50 μL hydrogels 30 minutes after induction of gelation (Anton Par, P25S 25 mm parallel steel plates) with a measuring gap of 250 μm. Storage (G′) and loss (G″) moduli were measured as a function of strain (%) ranging from 0.01 to 100% with a constant frequency of 10 rad/s. Frequency sweeps were performed at angular frequencies ranging from 1 to 100 rad/s at 0.1% strain. For recovery experiments, a step-time procedure was utilized with a series of applied strains at a fixed oscillation frequency of 10 rad/s. Initially, samples were applied with 0.01% strain for 100 s followed immediately by a 100% strain for 50 s, and cycled 5 times.

[3] = Hydrogel formation (gelation) of peptides dissolved in PBS with pH adjustment; assay type: physicochemical; settings: for hydrogel formation: dissolved in PBS at pH 7.4 and 1.5 wt %; for gelation as the pH was raised: pH raised from low pH
Protocol: as §1
The secondary structural content of pentapeptide specimens was probed by ATR-FTIR spectroscopy. Samples of the pentapeptides of interest were generated via solid-phase peptide synthesis methods. An alanine (Ala) scan of KYFIL was used to assess each AA's contribution to gelation, wherein individual amino acids (AAs) were sequentially exchanged with Ala or Val. Ala and Val were the substituted residues of choice, as they either eliminate a side-chain beyond the Cβ atom (Ala) or otherwise would be expected to minimally alter the main-chain conformation (Val). As uncharged and relatively compact residues, Ala and Val would not be expected to introduce (confounding) electrostatic or steric effects. All pentapeptides were dissolved in phosphate-buffered saline (PBS) at a concentration of 1.5% or 3% (weight/volume) and adjusted to a pH of 7.4. Gelling peptides (solid lines, FIG. 2) display a strong amide I absorbance at ≈1629 cm^−1, arising from vibrational modes of the amide group; these vibrations, in the region of 1700→1600 cm^−1, correspond to stretching of the C═O and C—N bonds, as well as bending of the N—H. This region of the IR spectrum is particularly sensitive to variations in secondary structural conformation and, in the case of our pentapeptide samples, is indicative of β-sheet hydrogen bonding (FIG. 2, FIG. 12, and FIGS. 13A-B). […] This can be inferred because the amide I region of parallel β-sheets harbors a single predominant signature (near 1630 cm^−1), while antiparallel sheets generally feature a second (minor) peak near ≈1680-1690 cm^−1. […] By correlating our IR observations with variations in AA sequence, it appears that amphiphilicity and a capacity for π-system interactions (e.g., π . . . π stacking and π . . . cation interactions with the benzyl side-chain of the central Phe) play a key role in self-assembly and hydrogel formation (FIG. 2).

[4] = Electron microscopy (TEM, cryo-EM) of nanofiber morphology; assay type: physicochemical; settings: for typical fiber / ribbon diameter: 1.5 wt % hydrogels at pH 7.4; for nanostructure morphology (TEM): 1.5 wt % in PBS at pH 7.4
Protocol: 3.5 μL of peptide hydrogel was placed on a holey carbon grid (Protochips, Inc.). Three washes of deionized water, and three washes of 2% uranyl acetate staining solutions with 2 s blotting between each step was performed. Samples were analyzed on a Tecnai F20 equipped with a 4 k×4 k UltraScan CCD camera. Pitch and length were determined using Fiji (Schindelin, J. et al., Fiji: an open-source platform for biological-image analysis. Nat Methods 2012, 9 (7), 676-682, herein incorporated by reference in its entirety) and the FiberApp software package (Usov, I.; Mezzenga, R., FiberApp: An Open-Source Software for Tracking and Analyzing Polymers, Filaments, Biomacromolecules, and Fibrous Objects. Macromolecules 2015, 48 (5), 1269-1280, herein incorporated by reference in its entirety) was used to compute autocorrelation functions of intensity profiles.

[5] = pH-responsive solubility of nongelling sequences; assay type: physicochemical
[6] = Step-strain recovery / thixotropy test of hydrogel; assay type: physicochemical
Protocol: as §1, with “Initially, samples were applied with 0.01% strain for 100 s followed immediately by a 100% strain for 50 s, and cycled 5 times.” left out

[7] = Apparent viscosity versus shear rate (shear-thinning); assay type: physicochemical
[8] = 1.5 wt. % hydrogel, thixotropy test, 200% strain (200 s), 400 s recovery, FIG. 21 legend

Substance | storage modulus (G') ([2]; 1.5 wt % hydrogel) [Pa] | hydrogel formation [3] | typical fiber / ribbon diameter [4] | nanostructure morphology (TEM) [4] | storage modulus (G') ([2]; 3 wt % hydrogel) [Pa] | solubility at low pH [5] | behavior as the pH was raised [5] | gelation as the pH was raised [3] | other results
AYFIL-NH2 [AYFIL] | ~1900 | form hydrogels | ≈ 10 nm | twisted fibrils |  |  |  |  | viability and growth of OPCs encapsulated in hydrogel [1]: survived and grew; OPC proliferation (increase in DNA concentration) ([1]; 1.5 wt % hydrogel, 4 days): cells proliferate over the course of 4 days; live/dead staining of encapsulated OPCs ([1]; 1.5 wt % hydrogel, day 1): majority of cells remained viable; time OPCs remained viable after encapsulation (ATP increase) ([1]; 96 h): at least 4 days; time of culture to OPC process extension ([1]; without adhesion peptide sequences or native ECM proteins): ≤ 2 days
KAFIL (KAFIL-NH2) [pentapeptide, C-terminally amidated, gels at pH>10] |  |  |  | spherical aggregates | 200 |  |  |  | gelation at high pH ([3]; pH>10): can gel
KYAIL-NH2 [KYAIL] |  |  |  |  |  | soluble | precipitated as an off-white powder | never gelled | 
KYFAL (KYFAL-NH2) [self-assembling pentapeptide, C-terminally amidated] |  | form hydrogels | ≈ 10 nm | twisted ribbon morphologies, with longer and more infrequent pitch than KYFIL peptides | 133 |  |  |  | 
KYFIA-NH2 [KYFIA] |  |  |  |  |  | soluble | precipitated as an off-white powder | never gelled | 
KYFIL-CO2H |  |  |  |  |  |  |  |  | hydrogel formation of carboxyl-terminated variant ([3]; pH 7.4): did not readily form hydrogels
KYFIL-NH2 [KYFIL] | 8000 | form hydrogels | ≈ 40 nm | twisted ribbon morphologies | 17000 |  |  |  | viability and growth of OPCs encapsulated in hydrogel ([1]; 1.5 wt % hydrogel, ATP and DNA concentrations over time): poor cell viability; time to recover 90% of initial G' [6, 8]: 3.5 min; time to recover 96% of initial G' [6, 8]: 7 min; time to recover gel behavior (G'>G'') ([6]; following 100% strain): ≤ 14 s; time to recover 90% of initial G' ([6]; results text (FIG. 21)): 3.4 min; time to recover 96% of initial G' ([6]; results text (FIG. 21)): 7 min; twisted ribbon pitch ([4]; 1.5 wt % hydrogel, pH 7.4, EM): ca. 132 nm; twisted ribbon width ([4]; 1.5 wt % hydrogel, pH 7.4, EM): ca. 40 nm; nanostructure morphology (EM) in nongelling conditions ([4]; 1.5 wt %, pH 4.6): amorphous peptide aggregates; periodicity of the fibrillar twist ([4]; visual analysis and autocorrelation function of pixel intensity, TEM): ~120 nm
KYFIV-NH2 [KYFIV] |  |  |  |  |  | soluble | precipitated as an off-white powder | never gelled | 
RGDKYFIL (RGDKYFIL-NH2) [8-mer peptide containing KYFIL] | ~100 |  |  |  | ~1000 |  |  |  | shear-thinning behavior (apparent viscosity versus shear rate) [7]: displays shear-thinning behavior
